Earlier results, collected in US20260226019A1, “NEGATIVE ALLOSTERIC MODULATORS OF METABOTROPIC GLUTAMATE RECEPTOR 2” (Vanderbilt University, priority 2023, published 2026).
Like-named read-outs stand apart in the source and are kept apart here.

Tests used:
[1] = tested on: group II mGlu receptors (mGlu2 and mGlu3); conditions: CFS model; cited from earlier work
[2] = tested on: central mGlu2 and mGlu3 receptors; conditions: target-specific manner; cited from earlier work
[3] = C57B16/J mice, FST; cited from earlier work
[4] = cited from earlier work; for activity in the tail suspension test: Helpless (H) mice; for antidepressant effect: helpless mice
[5] = dominant-submissive test; cited from earlier work
[6] = tested on: mGlu2; conditions: cited from earlier work
[7] = tested on: group II mGlu receptors; conditions: treated mice; cited from earlier work
[8] = tested on: mGlu2/3 receptor; conditions: rat forced swim test, normal animals; cited from earlier work
[9] = tested on: mGlu2/3 receptor; conditions: mouse tail-suspension test, normal animals; cited from earlier work
[10] = olfactory bulbectomized rats; repeated administration for 14 days; cited from earlier work
[11] = social isolation reared mice; cited from earlier work
[12] = tested on: mGlu2/3 receptor; conditions: learned helplessness test; treatment for 7 days; cited from earlier work

In the case of `CN1C(=O)CN=C(c2ccccc2)c2cc(Cl)ccc21` [diazepam], the freezing behavior [1] is given as “significantly decreased”.

In the case of `Cc1cc(-c2cccc(C3=Nc4cc(C)c(C(F)(F)F)cc4NC(=O)C3)c2)cc(C)n1` [Compound R04491533], the “hypolocomotor effect of mGlu2/3 agonist (LY379268)” value [2] is listed as “reversed”, the immobility time [3] is listed as “dose-dependently reduced” and the “activity in the tail suspension test” value [4] is listed as “active”.

In the case of `COCCCC/C(=N\OCCN)c1ccc(C(F)(F)F)cc1` [fluvoxamine], the freezing behavior [1] is given as “significantly decreased”.

For `CNCCC(Oc1ccc(C(F)(F)F)cc1)c1ccccc1` (stereo not shown) [fluoxetine], the onset of effects [5] is given as “after two weeks” and the antidepressant effect ([4]; chronic (21 days) treatment) is given as “full antidepressant effect”.

In the case of `CCS(=O)(=O)N(Cc1cccnc1)c1cccc(-c2ccc(C#N)cc2)c1` [LY566332], the AP-induced neurodegeneration [6] is given as “amplified”.

In the case of `N[C@](CC1c2ccccc2Oc2ccccc21)(C(=O)O)[C@H]1C[C@@H]1C(=O)O` [LY341495], the “hypolocomotor effect of mGlu2/3 agonist (LY379268)” value [2] is listed as “achieved the same result”, the marble-burying behavior [7] is listed as “significantly reduce” and the antidepressant-like effects [8] is listed as “Antidepressant-like effects”. The immobility time [3] was “dose-dependently reduced”, the “activity in the tail suspension test” value [4] was “active” and the antidepressant effect ([4]; acute administration) was “potent antidepressant effect”. The antidepressant-like effects [9] was “Antidepressant-like effects” and the “LY566332 amplification of AP-induced neurodegeneration” value [6] was “prevented”.

For `N[C@]1(C(=O)O)[C@H]2[C@@H](C[C@H]1OCc1ccc(Cl)c(Cl)c1)[C@]2(F)C(=O)O` [MGS0039], the marble-burying behavior [7] is listed as “reduced marble-burying behavior in a significant and dose dependent manner”, the spontaneous locomotor activity [7] is listed as “no significant change” and the “hyperactivity in the open field test” value [10] is listed as “attenuated”. The “learning deficit in the passive avoidance test” value [10] was “attenuated”, the freezing behavior [1] was “significantly decreased” and the antidepressant-like effects [8] was “Antidepressant-like effects”. The “increased immobility in the FST” value [11] was “reversed”, the “number of escape failures” value [12] was “significantly reduced” and the antidepressant-like effects [9] was “Antidepressant-like effects”.
